Reference: article PMC9050769 (European Journal of Drug Metabolism and Pharmacokinetics, 2022)
Like-named read-outs stand apart in the source and are kept apart here.

How the values were obtained:
[1] = more potent than tramadol; cited from earlier work
[2] = Observed tramadol and ODT blood concentrations; format: in vivo, human
mu (µ) opioid receptor = conditions: higher than that of tramadol; cited from earlier work
[3] = cited from earlier work
[4] = before inclusion of CrCL covariate (base model)
[5] = final model (with CrCL covariate)

## CN(C)C[C@H]1CCCC[C@]1(O)c1cccc(O)c1 [O-desmethyltramadol]
[1]
  potency relative to tramadol: 100 times
[2]; patients received 100 mg of tramadol
  ODT concentration: around 100 µg/l
[2]; trough samples, n = 17
  ODT/tramadol concentration ratio at steady state, range: 0.08–0.82
Mu (µ) opioid receptor
  binding affinity to the mu (µ) opioid receptor relative to tramadol: 300 fold
Final model
  BSV in CLm: 21.6%
  CLm/F, clearance of O-desmethyltramadol: 0.143 L/h

## CNC(C)C1CCC(N)C(OC2C(N)CC(N)C(OC3OCC(C)(O)C(NC)C3O)C2O)O1 (stereo not drawn) [gentamicin]
[3]
  clearance in frail older patients compared to fit older patients: reduced

## COc1cccc(C2(O)CCCCC2CN(C)C)c1 (stereo not drawn) [tramadol]
[4]
  BSV in CL/F: 78.9%
  BSV in V2/F: 148%
Before inclusion of ISAR covariate (base model)
  BSV in Q: 4.71%
Final model
  BSV in V1/F: 73.8%
  BSV in kt: 78.5%
  Q, inter-compartmental clearance: 0.0426 L/h
  V2/F, apparent volume of distribution in peripheral compartment: 0.379 L
  between-subject variability (BSV) in absorption rate constant: 37.8%
[5]
  BSV in CL/F: 6.61%
  BSV in V2/F: 97.4%
Final model (with ISAR covariate)
  BSV in Q: 2.19%
